{
  "source": "paper PMC11982978",
  "about": "“Cancer hotspot mutations rewire ERK2 specificity by selective exclusion of docking interactions” (The Journal of Biological Chemistry, 2025)",
  "origin": "cited, not measured here",
  "data": [
    {"tested_on": "WT ERK2", "details": "selective conditions (-His); hits Z > 3; average of three screens; cited from earlier work", "from_the_text": "Supplement mmc2.xlsx, sheet \"WT Hits\" | column: Z-score", "values": [
      {"sequence": "AAGRRAAPYLVLTA [TFR2, D-site 14-mer in ELK1 Y2H prey]", "Z-score (ES) of hit sequences, WT ERK2 Y2H screen": 3.19},
      {"sequence": "AKRRIANLKIQLAK [WWC1, D-site 14-mer in ELK1 Y2H prey]", "Z-score (ES) of hit sequences, WT ERK2 Y2H screen": 3.55},
      {"sequence": "ALLRKINQVLLFLL [GLT8D2, D-site 14-mer in ELK1 Y2H prey]", "Z-score (ES) of hit sequences, WT ERK2 Y2H screen": 5.93},
      {"sequence": "ARGQRSVLQVPLPV [CRNKL1, D-site 14-mer in ELK1 Y2H prey]", "Z-score (ES) of hit sequences, WT ERK2 Y2H screen": 4.21},
      {"sequence": "CELPRRNCLLPFSN [NSD1, D-site 14-mer in ELK1 Y2H prey]", "Z-score (ES) of hit sequences, WT ERK2 Y2H screen": 3.49},
      {"sequence": "CKLKMKPRPIAILQ [TTN, D-site 14-mer in ELK1 Y2H prey]", "Z-score (ES) of hit sequences, WT ERK2 Y2H screen": 7.96},
      {"sequence": "DTPIRKKEELLFDD [FBF1, D-site 14-mer in ELK1 Y2H prey]", "Z-score (ES) of hit sequences, WT ERK2 Y2H screen": 3.49},
      {"sequence": "EEEFRKLTNVRIMK [PTPRE, D-site 14-mer in ELK1 Y2H prey]", "Z-score (ES) of hit sequences, WT ERK2 Y2H screen": 8.60},
      {"sequence": "EERKTKRPSLRLFG [PPARGC1A, D-site 14-mer in ELK1 Y2H prey]", "Z-score (ES) of hit sequences, WT ERK2 Y2H screen": 4.99},
      {"sequence": "EKIKVKSTEVEILE [MUM1, D-site 14-mer in ELK1 Y2H prey]", "Z-score (ES) of hit sequences, WT ERK2 Y2H screen": 3.47},
      {"sequence": "EKVKRKKNVLRLCC [PRAME, D-site 14-mer in ELK1 Y2H prey]", "Z-score (ES) of hit sequences, WT ERK2 Y2H screen": 4.69},
      {"sequence": "FTLKAKRPGLRLPD [FLRT1, D-site 14-mer in ELK1 Y2H prey]", "Z-score (ES) of hit sequences, WT ERK2 Y2H screen": 4.42},
      {"sequence": "GLTARRLLPLRLPP [MLYCD, D-site 14-mer in ELK1 Y2H prey]", "Z-score (ES) of hit sequences, WT ERK2 Y2H screen": 14.29},
      {"sequence": "GRPLRLPPPLRLLR [GNAS, D-site 14-mer in ELK1 Y2H prey]", "Z-score (ES) of hit sequences, WT ERK2 Y2H screen": 3.08},
      {"sequence": "HFRHKSQLRLHLRQ [BCL6, D-site 14-mer in ELK1 Y2H prey]", "Z-score (ES) of hit sequences, WT ERK2 Y2H screen": 5.64},
      {"sequence": "IFQRQRVDALLLDL [MED6, D-site 14-mer in ELK1 Y2H prey]", "Z-score (ES) of hit sequences, WT ERK2 Y2H screen": 7.05},
      {"sequence": "IKMKPKPRILSIKS [MAP9, D-site 14-mer in ELK1 Y2H prey]", "Z-score (ES) of hit sequences, WT ERK2 Y2H screen": 3.08},
      {"sequence": "IPKNRIHHKLVLPS [CENPC, D-site 14-mer in ELK1 Y2H prey]", "Z-score (ES) of hit sequences, WT ERK2 Y2H screen": 3.05},
      {"sequence": "ITKAIRDRLLFLRQ [NBAS, D-site 14-mer in ELK1 Y2H prey]", "Z-score (ES) of hit sequences, WT ERK2 Y2H screen": 3.64},
      {"sequence": "ITSKQRPRKLTLMG [MTOR, D-site 14-mer in ELK1 Y2H prey]", "Z-score (ES) of hit sequences, WT ERK2 Y2H screen": 4.58},
      {"sequence": "KCSRKKKPKLSLKA [L3MBTL3, D-site 14-mer in ELK1 Y2H prey]", "Z-score (ES) of hit sequences, WT ERK2 Y2H screen": 10.66},
      {"sequence": "KGKSKRKKDLRISC [MAP2K3, D-site 14-mer in ELK1 Y2H prey]", "Z-score (ES) of hit sequences, WT ERK2 Y2H screen": 10.02},
      {"sequence": "KGVKHRPPPIKLPS [SUPT20H, D-site 14-mer in ELK1 Y2H prey]", "Z-score (ES) of hit sequences, WT ERK2 Y2H screen": 18.07},
      {"sequence": "KKARGKPVRLRLSS [MELK, D-site 14-mer in ELK1 Y2H prey]", "Z-score (ES) of hit sequences, WT ERK2 Y2H screen": 7.57},
      {"sequence": "KKFRHRPEPLFIPP [TRERF1, D-site 14-mer in ELK1 Y2H prey]", "Z-score (ES) of hit sequences, WT ERK2 Y2H screen": 19.05},
      {"sequence": "KKGVKPKLVLNVTS [CMYA5, D-site 14-mer in ELK1 Y2H prey]", "Z-score (ES) of hit sequences, WT ERK2 Y2H screen": 4.91},
      {"sequence": "KKRKIPKLVLRINA [DENND2A, D-site 14-mer in ELK1 Y2H prey]", "Z-score (ES) of hit sequences, WT ERK2 Y2H screen": 11.21},
      {"sequence": "KKRKKKRLVINLSS [TTLL6, D-site 14-mer in ELK1 Y2H prey]", "Z-score (ES) of hit sequences, WT ERK2 Y2H screen": 10.00},
      {"sequence": "KKSRVPPPPILLSR [CFAP54, D-site 14-mer in ELK1 Y2H prey]", "Z-score (ES) of hit sequences, WT ERK2 Y2H screen": 11.93},
      {"sequence": "KKTRKLKIALALSD [PLCZ1, D-site 14-mer in ELK1 Y2H prey]", "Z-score (ES) of hit sequences, WT ERK2 Y2H screen": 3.78},
      {"sequence": "KLDKSPFVVVSVVG [TTC28, D-site 14-mer in ELK1 Y2H prey]", "Z-score (ES) of hit sequences, WT ERK2 Y2H screen": 3.83},
      {"sequence": "KPLKKKPTPVLLPQ [SEC63, D-site 14-mer in ELK1 Y2H prey]", "Z-score (ES) of hit sequences, WT ERK2 Y2H screen": 3.34}
    ]}
  ]
}
